Read-outs that look alike come from different tables or passages of the source.
Key:
SK-OV-3 = assay: Inhibition of cells growth by colorimetric (SRB) assay, SK-OV-3; conditions: for CC50: read-out: LC50 SKOV-3, SRB assay, 48 hours exposure; for TGI SKOV-3: SRB assay, 48 hours exposure
Procedure, shortened: (§1)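 Human tumour cells seeded at 5×10^3/well in RPMI 1640 10% FBS, attached 18 h, then exposed 48 h to samples at 10 to 10^−8 μg/ml in DMSO/EtOH/PBS (0.5:0.5:99). Growth read by SRB staining after TCA fixation, OD 490 nm, triplicate wells; GI, TGI and LC derived.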

PANC-1 = assay: Inhibition of cells growth by colorimetric (SRB) assay, PANC-1; conditions: for CC50: Homo sapiens, PANC-1, 48 h, read-out: LC50 PANC-1, SRB assay, 48 hours exposure; for TGI PANC-1 / GI50: SRB assay, 48 hours exposure; for GI50: read-out: GI50 PANC-1
Procedure, shortened: as §1

DU-145 = assay: Inhibition of cells growth by colorimetric (SRB) assay, DU-145
Procedure, shortened: as §1

LNCaP = assay: Inhibition of cells growth by colorimetric (SRB) assay, LNCaP; conditions: for CC50: read-out: LC50 LN-caP
Procedure, shortened: as §1

K-562 = assay: Inhibition of cells growth by colorimetric (SRB) assay, K-562; conditions: for CC50: Homo sapiens, K562, 48 h, read-out: LC50 K-562, SRB assay, 48 hours exposure; for TGI K-562 / GI50: SRB assay, 48 hours exposure; for GI50: read-out: GI50 K-562
Procedure, shortened: as §1

LoVo-Dox = assay: Inhibition of cells growth by colorimetric (SRB) assay, LoVo-Dox; conditions: for GI50 / CC50: Homo sapiens, 48 h; for GI50: read-out: GI50 LOVO-DOX, SRB assay, 48 hours exposure; for CC50: read-out: LC50 LOVO-DOX, SRB assay, 48 hours exposure; for TGI LOVO-DOX: SRB assay, 48 hours exposure
Procedure, shortened: as §1

HT-29 = assay: Inhibition of cells growth by colorimetric (SRB) assay, HT-29; conditions: for CC50: read-out: LC50 HT-29, SRB assay, 48 hours exposure
Procedure, shortened: as §1

LoVo = assay: Inhibition of cells growth by colorimetric (SRB) assay, LoVo; conditions: for GI50: Homo sapiens, LoVo, 48 h, read-out: GI50 LOVO, SRB assay, 48 hours exposure; for TGI LOVO / CC50: SRB assay, 48 hours exposure; for CC50: read-out: LC50 LOVO
Procedure, shortened: as §1

IGROV-ET = assay: Inhibition of cells growth by colorimetric (SRB) assay, IGROV-ET; conditions: for GI50 / CC50: Homo sapiens, 48 h; for GI50: read-out: GI50 IGROV-ET, SRB assay, 48 hours exposure; for CC50: read-out: LC50 IGROV-ET, SRB assay, 48 hours exposure; for TGI IGROV-ET: SRB assay, 48 hours exposure
Procedure, shortened: as §1

SK-BR-3 = assay: Inhibition of cells growth by colorimetric (SRB) assay, SK-BR-3
Excerpt: (§2) The finality of these assays is to interrupt the growth of a “in vitro” tumor cell culture by means a continued exhibition of the cells to the sample to be testing.
(§3) This form of the assay employs 96 well cell culture microplates of 9 mm diameter (Faircloth, 1988; Mosmann, 1983). Most of the cell lines are obtained from American Type Culture Collection (ATCC) derived from different human cancer types.
(§4) Cells are maintained in RPMI 1640 10% FBS, supplemented with 0.1 g/l penicillin and 0.1 g/l streptomycin sulphate and then incubated at 37° C., 5% CO2 and 98% humidity. For the experiments, cells were harvested from subconfluent cultures using trypsin and resuspended in fresh medium before plating.
(§5) Cells are seeded in 96 well microtiter plates, at 5×10^3 cells per well in aliquots of 195 μl medium, and they are allowed to attach to the plate surface by growing in drug free medium for 18 hours. Afterward, samples are added in aliquots of 5 μl in a ranging from 10 to 10^−8 μg/ml, dissolved in DMSO/EtOH/PBS (0.5:0.5:99). After 48 hours exposure, the antitumor effect are measured by the SRB methodology: cells are fixed by adding 50 μl of cold 50% (wt/vol) trichloroacetic acid (TCA) and incubating for 60 minutes at 4° C. Plates are washed with deionized water and dried. One hundred μl of SRB solution (0.4% wt/vol in 1% acetic acid) is added to each microtiter well and incubated for 10 minutes at room temperature. Unbound SRB is removed by washing with 1% acetic acid. Plates are air dried and bound stain is solubilized with Tris buffer. Optical densities are read on a automated spectrophotometric plate reader at a single wavelength of 490 nm.
(§6) The values for mean +/−SD of data from triplicate wells are calculated. Some parameters for cellular responses can be calculated: GI=growth inhibition, TGI=total growth inhibition (cytostatic effect) and LC=cell killing (cytotoxic effect).

A-549 = assay: Inhibition of cells growth by colorimetric (SRB) assay, A-549; conditions: for CC50: Homo sapiens, A549, 48 h, read-out: LC50 A-549, SRB assay, 48 hours exposure; for TGI A-549 / GI50: SRB assay, 48 hours exposure; for GI50: read-out: GI50 A-549
Procedure, shortened: as §1

HMEC1 = assay: Inhibition of cells growth by colorimetric (SRB) assay, HMEC1; conditions: for GI50: Homo sapiens, HMEC-1, 48 h, read-out: GI50 H-MEC-1, SRB assay, 48 hours exposure; for TGI H-MEC-1 / CC50: SRB assay, 48 hours exposure; for TGI H-MEC-1: in M (unit assumed); for CC50: read-out: LC50 H-MEC-1
Excerpt: as §2, §3, §4, §5, §6

SK-MEL-28 = assay: Inhibition of cells growth by colorimetric (SRB) assay, SK-MEL-28; conditions: for GI50 / CC50: Homo sapiens, SK-MEL-28, 48 h; for GI50: read-out: GI50 MEL-28, SRB assay, 48 hours exposure; for CC50: read-out: LC50 MEL-28, SRB assay, 48 hours exposure; for TGI MEL-28: SRB assay, 48 hours exposure
Procedure, shortened: as §1

IGROV-1 = assay: Inhibition of cells growth by colorimetric (SRB) assay, IGROV-1; conditions: for GI50: read-out: GI50 IGROV, SRB assay, 48 hours exposure
Procedure, shortened: as §1

## Cl.Nc1nccc(-c2c3cc4ccccc4nc3n3c(N)nccc23)n1 [Compound 42]
SK-OV-3; Homo sapiens, SK-OV-3, 48 h, read-out: GI50 SKOV-3, SRB assay, 48 hours exposure
  GI50: 1080 nM
SK-OV-3; Homo sapiens, SK-OV-3, 48 h
  CC50: 21500 nM
SK-OV-3
  TGI SKOV-3: 5.32E−06
PANC-1
  CC50: 25000 nM
  TGI PANC-1: 2.50E−05
  GI50: 8870 nM
DU-145; SRB assay, 48 hours exposure
  TGI DU-145: 6.10E−06
DU-145; read-out: GI50 DU-145, SRB assay, 48 hours exposure
  GI50: 1480 nM
DU-145; read-out: LC50 DU-145, SRB assay, 48 hours exposure
  CC50: 21100 nM
LNCaP; Homo sapiens, LNCaP, 48 h, read-out: GI50 LN-caP, SRB assay, 48 hours exposure
  GI50: 432 nM
LNCaP; SRB assay, 48 hours exposure
  TGI LN-caP: 1.25E−06
  CC50: 5970 nM
K-562
  CC50: 14600 nM
  TGI K-562: 7.69E−06
  GI50: 4070 nM
LoVo-Dox
  GI50: 954 nM
  CC50: 15500 nM
  TGI LOVO-DOX: 3.62E−06
HT-29; Homo sapiens, HT-29, 48 h, read-out: GI50 HT-29, SRB assay, 48 hours exposure
  GI50: 1990 nM
HT-29; Homo sapiens, HT-29, 48 h
  CC50: 25000 nM
HT-29; SRB assay, 48 hours exposure
  TGI HT-29: 2.50E−05
LoVo
  GI50: 884 nM
  TGI LOVO: 5.42E−06
  CC50: 25000 nM
IGROV-ET
  GI50: 1700 nM
  CC50: 15400 nM
  TGI IGROV-ET: 5.45E−06
SK-BR-3; SRB assay, 48 hours exposure
  TGI SK-BR-3: 3.22E−07
SK-BR-3; read-out: GI50 SK-BR-3, SRB assay, 48 hours exposure
  GI50: 67.7 nM
SK-BR-3; read-out: LC50 SK-BR-3, SRB assay, 48 hours exposure
  CC50: 1670 nM
A-549
  CC50: 14300 nM
  TGI A-549: 2.26E−06
  GI50: 135 nM
HMEC1
  GI50: 114 nM
  TGI H-MEC-1: 5.32E−07
  CC50: 1860 nM
SK-MEL-28
  GI50: 2560 nM
  CC50: 25000 nM
  TGI MEL-28: 2.50E−05
IGROV-1; Homo sapiens, IGROV-1, 48 h
  GI50: 1560 nM
IGROV-1; SRB assay, 48 hours exposure
  TGI IGROV: 5.15E−06
IGROV-1; read-out: LC50 IGROV, SRB assay, 48 hours exposure
  CC50: 13000 nM

## Cc1ccc2c(-c3ccnc(N)n3)c3ccnc(N)n3c2n1.Cl [Compound 44]
SK-OV-3; Homo sapiens, SK-OV-3, 48 h
  CC50: 27500 nM
SK-OV-3
  TGI SKOV-3: 2.75E−05
PANC-1
  CC50: 27500 nM
  TGI PANC-1: 9.94E−06
  GI50: 1710 nM
DU-145; Homo sapiens, DU-145, 48 h, read-out: GI50 DU-145, SRB assay, 48 hours exposure
  GI50: 475 nM
DU-145; SRB assay, 48 hours exposure
  TGI DU-145: 1.51E−06
LNCaP; SRB assay, 48 hours exposure
  TGI LN-caP: 7.85E−07
  CC50: 1760 nM
LNCaP; read-out: GI50 LN-caP, SRB assay, 48 hours exposure
  GI50: 351 nM
K-562
  CC50: 27500 nM
  TGI K-562: 2.75E−05
  GI50: 4170 nM
LoVo-Dox
  GI50: 777 nM
  CC50: 23500 nM
  TGI LOVO-DOX: 3.27E−06
HT-29; Homo sapiens, HT-29, 48 h
  CC50: 27500 nM
HT-29; SRB assay, 48 hours exposure
  TGI HT-29: 1.09E−05
HT-29; read-out: GI50 HT-29, SRB assay, 48 hours exposure
  GI50: 1090 nM
LoVo
  GI50: 456 nM
  TGI LOVO: 1.13E−06
  CC50: 2750 nM
IGROV-ET
  GI50: 568 nM
  CC50: 17200 nM
  TGI IGROV-ET: 1.87E−06
SK-BR-3; Homo sapiens, SK-BR-3, 48 h, read-out: GI50 SK-BR-3, SRB assay, 48 hours exposure
  GI50: 612 nM
SK-BR-3; Homo sapiens, SK-BR-3, 48 h, read-out: LC50 SK-BR-3, SRB assay, 48 hours exposure
  CC50: 6310 nM
SK-BR-3; SRB assay, 48 hours exposure
  TGI SK-BR-3: 1.61E−06
A-549
  CC50: 27500 nM
  TGI A-549: 2.75E−05
  GI50: 9170 nM
HMEC1
  GI50: 158 nM
  TGI H-MEC-1: 3.07E−07
  CC50: 1310 nM
SK-MEL-28
  GI50: 601 nM
  CC50: 8950 nM
  TGI MEL-28: 2.11E−06
IGROV-1; Homo sapiens, IGROV-1, 48 h
  GI50: 1080 nM
IGROV-1; Homo sapiens, IGROV-1, 48 h, read-out: LC50 IGROV, SRB assay, 48 hours exposure
  CC50: 24600 nM
IGROV-1; SRB assay, 48 hours exposure
  TGI IGROV: 6.34E−06
